Where a name gives a salt, the structure may show the parent alone. Read-outs that look alike come from different tables or passages of the source.
Tests used:
[1] = Evaluation of acid addition salts (ease of formation and crystallinity); type: physicochemical; details: for Overall Salt Rating: based on ease of formation and crystallinity, salt of 1a (free base treated with acid); for isomer formation on recrystallization (words): EtOAc in Table III
Protocol: Many counter-ions were evaluated for salt-forming properties. The data presented in Table III answer the following questions: (1) did a solid salt precipitate from ether when free base 1a was treated with each acid?; (2) following collection of the salt by either filtration or evaporation of the ether, what solvents were used to crystallize the salt, and was a crystalline salt obtained from each solvent?; (3) melting point information; and (4) overall rating of each salt, based on considerations of ease of formation and crystallinity.

[2] = target: rat cerebral cortex muscarinic receptors; experiment: Muscarinic receptor binding, CMD (cis-methyldioxolane) agonist radioligand; details: for IC50: Table I
[3] = target: rat cerebral cortex muscarinic receptors; details: Table I; read-out: QNB Binding IC50
[4] = Refrigerated storage stability of free base; type: physicochemical; details: refrigerated at -4° C., up to several days
[5] = tested on: m1-subtype muscarinic receptors; details: cited from earlier work
[6] = Hygroscopicity of salts of Compound 1a; type: physicochemical; details: for Hygroscopicity (% wt increase): RT, 81% RH for 16 days, crimped DSC pans; for moisture uptake / hygroscopicity in words: salts of Table IV
[7] = Stability of crystalline salts of 1a under accelerated stability conditions; type: physicochemical
Source text: Maleate and benzoate salts were recrystallized from ethyl acetate and t-butyl methyl ether, respectively. Xenon exposure with the Atlas SunChex set for 0.4±0.1 watts/m^2. Fluorescent exposure with 1000-±100-ft candles.

[8] = Aqueous solubility of crystalline salts of 1a; type: physicochemical; details: for solubility: water, room temp.
[9] = tested on: hippocampally deficient mice; type: in vivo, mouse
Source text: This test measures the ability of a compound to decrease the amount of time needed by the mice to find a hidden platform in the water pool.
The graph represents two sets of experiments, each one with its own control group.

[10] = tested on: rat cerebral cortex muscarinic receptors; details: earlier publications, cited from earlier work
[11] = 1a versus isomer 1b, Tables II and III of Jaen reference
[12] = Xenon, 26 hours, 0.4±0.1 watts/m^2

## COc1cccc(C#CCO/N=C2\CN3CC[C@@H]2C3)c1 [Fumarate (1 equi)]
[1]
  Overall Salt Rating: Low

## COc1cccc(C#CCO/N=C2\CN3CC[C@@H]2C3)c1 [Stearate]
[1]
  Overall Salt Rating: Low

## COc1cccc(C#CCO/N=C2\CN3CC[C@@H]2C3)c1 [Fumarate (0.5 epui)]
[1]
  Overall Salt Rating: Medium

## COc1cccc(C#CCO/N=C2\CN3CC[C@@H]2C3)c1 [Tartrate (L)-(+) (1 equi)]
[1]
  Overall Salt Rating: Low

## CCCC(=O)O.COc1cccc(C#CCON=C2CN3CCC2C3)c1 (centres unmarked)
[1]
  Overall Salt Rating: Low

## COc1cccc(C#CCO/N=C2\CN3CC[C@@H]2C3)c1 [Tartrate (D)-(-) (0.5 equi)]
[1]
  Overall Salt Rating: Low

## COc1cccc(C#CCO/N=C2\CN3CC[C@@H]2C3)c1 [Malate]
[1]
  Overall Salt Rating: Low

## COc1cccc(C#CCO/N=C2\CN3CC[C@@H]2C3)c1 [Tartrate (L)-(+) (0.5 equi)]
[1]
  Overall Salt Rating: Low

## COc1cccc(C#CCO/N=C2/CN3CCC2C3)c1 (centres unmarked) [(1c + 1d)]
[2]
  IC50: 0.15 µM
[3]
  IC50: 14.8 µM

## COc1cccc(C#CCO/N=C2\CN3CC[C@@H]2C3)c1 [Compound 1a, [R-(Z)]-1-azabicyclo [2.2.1]heptan-3-one, O-[3-(3-methoxyphenyl)-2-propynyl]oxime]
[2]; 1a versus mixture of 1c/1d
  potency and efficacy as a muscarinic agonist (ratio of QNB to CMD binding): more potent and more efficacious as a muscarinic agonist
[2]
  IC50: 0.025 µM
[3]
  IC50: 5.3 µM
[4]
  decomposition or isomerization to 1c on storage: without noticeable decomposition or isomerization to produce 1c
[5]; [11]
  m1 potency: greater m1 potency than isomer 1b
  m1 receptor subtype selectivity: greater m1 receptor subtype selectivity

## COc1cccc(C#CCO/N=C2\CN3CC[C@@H]2C3)c1 [Maleate, (R)-(Z)-1-azabicyclo[2.2.1]heptan-3-one,O-[3-(3-methoxyphenyl)-2-propynyl]oxime, (Z)-butenedioic acid, [1:1 salt]]
[6]
  Hygroscopicity (% wt increase): 0.32 ± 0.02 % wt
  moisture uptake / hygroscopicity in words: the least
[7]; Fluorescence, 5.5 months, 1000-±100-ft candles
  Stability to light: presence of 1c: .largecircle.
[7]; [12]
  Stability to light: presence of 1c: .largecircle.
[8]; 1a maleate versus 1a benzoate
  solubility in water relative to 1a benzoate: about 15 times
[8]
  solubility: 89 mg/mL
[9]; 1 mg/kg, separate set of experiments (maleate)
  latency improvement: about 20 seconds
[9]; water maze
  biological activity compared to other salts: no loss of biological activity

## COc1cccc(C#CCON=C2CN3CCC2C3)c1 (centres unmarked) [Compound 1]
[10]; rat cerebral cortex
  affinity to rat cerebral cortex muscarinic receptors: high affinity
[10]; ratio QNB/CMD
  ability to displace agonist radioligand (cis-methyldioxolane) at lower concentrations than those required to displace antagonist radioligand (quinuclidinyl benzilate): 246 times
[5]; versus other non-m1 muscarinic receptors, earlier publications
  selective stimulation of m1-subtype muscarinic receptors: selectively stimulate m1-subtype muscarinic receptors without significant stimulation of other non-m1 muscarinic receptors

## COc1cccc(C#CCO/N=C2\CN3CC[C@@H]2C3)c1 [Hydrobromide]
[1]
  Overall Salt Rating: Low
[1]; precipitation from Et2O
  hygroscopicity of precipitated salt: very hygroscopic

## Nc1c2c(nc3ccccc13)CCCC2 [tacrine, reference compound]
[9]; tacrine in the maleate set of experiments
  latency improvement, tacrine control group: 24 s
[9]; tacrine in the oxalate set of experiments
  improvement of time to find the platform, positive control: ~27 s

## COc1cccc(C#CCO/N=C2\CN3CC[C@@H]2C3)c1 [Tartrate (D)-(-) (1 equi)]
[1]
  Overall Salt Rating: Low

## COc1cccc(C#CCO/N=C2\CN3CC[C@@H]2C3)c1 [Oxalate]
[6]
  Hygroscopicity (% wt increase): 6.38 ± 1.40 % wt
[6]; listed as oxalate salt
  moisture uptake / hygroscopicity in words: less hygroscopic than the hydrochloride
[9]; 1 mg/kg, first set of experiments (oxalate)
  reduction of time required to find the platform: about 18 seconds

## COc1cccc(C#CCO/N=C2\CN3CC[C@@H]2C3)c1 [ethyl acetate recrystallized maleate salt]
[7]; ethyl acetate recrystallized versus ether-precipitated
  stability compared with ether-precipitated product: more stable

## COc1cccc(C#CCO/N=C2\CN3CC[C@@H]2C3)c1 [Benzoate]
[1]
  Overall Salt Rating: High
[7]; 25° C./60% RH and 30° C./60% RH
  stability in words: stable
[7]; 30° C./60% RH, 2 weeks
  Stability: presence of 1c: .largecircle.
[7]; [12]
  Stability to light: presence of 1c: E (presence of 2%-4% 1c)
[8]
  solubility: 6 mg/mL

## COc1cccc(C#CCO/N=C2\CN3CC[C@@H]2C3)c1 [L(+)-Lactate]
[1]
  Overall Salt Rating: Low

## COc1cccc(C#CCO/N=C2\CN3CC[C@@H]2C3)c1 [Acetate]
[1]
  Overall Salt Rating: Low

## COc1cccc(C#CCO/N=C2\CN3CC[C@@H]2C3)c1 [ether-precipitated product]
[7]; 2 weeks, 40° C./75% RH
  physical state under accelerated stability condition: deliquescent

## COc1cccc(C#CCO/N=C2\CN3CC[C@@H]2C3)c1 [Succinate]
[1]
  Overall Salt Rating: Low

## COc1cccc(C#CCO/N=C2\CN3CC[C@@H]2C3)c1 [Benzene Sulfonae Sulphonate]
[1]
  Overall Salt Rating: Low

## COc1cccc(C#CCO/N=C2\CN3CC[C@H]2C3)c1 [Compound 1b]
[5]; isomer 1b, could be due to small amounts of 1a
  muscarinic agonist activity: small amount of activity

## COc1cccc(C#CCO/N=C2\CN3CC[C@@H]2C3)c1 [Hydrochloride]
[1]
  Overall Salt Rating: High
  isomer formation on recrystallization (words): E-Isomer Formation
[1]; listed as hydrochloride
  isomer formation on recrystallization (words): difficult to recrystallize without converting 1a to 1c
[6]
  Hygroscopicity (% wt increase): 27.77 ± 0.40 % wt
[6]; listed as HCl salt
  moisture uptake / hygroscopicity in words: took up water most rapidly and to the greatest extent
[6]; listed as hydrochloride salt
  moisture uptake / hygroscopicity in words: extremely hygroscopic
